# Source: US11179412B2, “Methods of treating conditions involving elevated inflammatory response” (University of Pittsburgh—Of the Commonwealth System of …, priority 2017, dated 2021)
# Where a name gives a salt, the structure may show the parent alone.
# System: STING activation (IFNβ release) in iBMDMs
# Assay: IFNβ release ELISA after STING ligand (or LPS) stimulation, iBMDMs
# Assay type: cell-based, mouse
# Details: iBMDMs; 3′3′-cGAMP 10 μg/ml, 16 hours; compound 10 μM
# Outline: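 iBMDMs were stimulated with a STING ligand such as 3′3′-cGAMP, or with LPS. Secreted IFNβ in culture medium was measured by commercial mouse or human IFNβ ELISA.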
SMILES,fold increase in IFN-β release [fold],3′3′-cGAMP-induced IFNβ release
Cc1cccc(CC(=O)N2CCc3c2ccc(-c2cn(C)c4ncnc(N)c24)c3F)n1 [GSK2656157],1.58,
CC1C(=O)OC2C(O)C34C5CC(C(C)(C)C)C36C(OC(=O)C6O)OC4(C(=O)O5)C12O (centres unmarked) [Ginkgolide B],1.44,
O=c1[nH]c2ccc(Cl)cc2c(N[C@@H]2CN3CCC2CC3)c1-c1nc2ccccc2[nH]1 [CHIR-124],1.30,
CC(C)C[C@H](NC(=O)[C@H]1O[C@@H]1C(=O)O)C(=O)NCCCCN=C(N)N [E-64],0.17,
"Cc1c(F)cc(C(=O)NC2CC2)cc1-c1ccc(C(=O)NCC(C)(C)C)cn1 [Losmapimod (GW856553X), Losmapimod]",1.20,
CC(C)NCC(O)COc1cccc2ccccc12 (centres unmarked) [Propranolol HCl],2.07,
CCCCN1CCCCC1C(=O)Nc1c(C)cccc1C (centres unmarked) [Bupivacaine HCl],0.42,
CCN(CC)CC(=O)Nc1c(C)cccc1C [Lidocaine],9.58,promoted
Cc1ccc(C(=O)N(CCCN)[C@@H](c2oc3cc(Cl)ccc3c(=O)c2Cc2ccccc2)C(C)C)cc1 [SB743921],1.16,
C#CCN[C@@H]1CCc2ccccc21 [Rasagiline Mesylate],1.77,
O=C(Nc1ccccc1)N1CCN(c2nc(-c3ccccc3)ns2)CC1 [JNJ-1661010],1.03,
CC(NC(=O)c1ccccc1/N=C/c1c(O)ccc2ccccc12)c1ccccc1 (centres unmarked) [Sirtinol],0.26,
C[C@H](NC(=O)Cc1cc(F)cc(F)c1)C(=O)N[C@@H]1C(=O)N(C)c2ccccc2-c2ccccc21 [YO-01027],1.74,
"CC(C)[C@H](O)C(=O)N[C@@H](C)C(=O)N[C@@H]1C(=O)N(C)CCc2ccccc21 [Semagacestat (LY450139), Semagacestat]",1.04,
COCCOc1ccc2c(c1)ncn2-c1ccc2cccc(N3CCC(N)CC3)c2n1 [CP-673451],0.27,
CN1CC(=O)N2[C@H](c3ccc4c(c3)OCO4)c3[nH]c4ccccc4c3C[C@@H]2C1=O [Tadalafil],2.66,
CC12CC3CC(C)(C1)CC(N)(C3)C2 [Memantine HCl],2.60,
C#CC[C@H](c1nc2cc(Cl)ccc2c(=O)n1Nc1ccccc1)N(CCCN)C(=O)c1cccc(Cl)c1F [ARQ 621],1.87,
"C1=C/COCc2cc(ccc2OCCN2CCCC2)Nc2nccc(n2)-c2cccc(c2)COC/1 [Pacritinib (SB1518), Pacritinib]",1.58,
O=C(O)/C(S)=C/c1c[nH]c2ccc(F)cc12 [PD 151746],1.92,
CCCN[C@H]1CCc2nc(N)sc2C1 [Pramipexole],2.07,
CN1CCC[C@@H]1CCO[C@](C)(c1ccccc1)c1ccc(Cl)cc1 [Clemastine Fumarate],1.32,
O=C1CC(=O)c2c(Cl)c(Cl)c(Cl)c(Cl)c21 [TCID],1.43,
Cc1ccc(-c2cc(C(F)(F)F)nn2-c2ccc(S(N)(=O)=O)cc2)cc1 [Celecoxib],0.76,
O=C1NC(=O)/C(=C/c2ccc(-c3ccc(F)cc3O)o2)S1 [AS-252424],6.84,promoted

SMILES,fold increase in IFN-β release [fold],3′3′-cGAMP-induced IFNβ release
CN(C)CCCCC(=O)Nc1ccc(NC(=S)NC(=O)c2ccc(C(C)(C)C)cc2)cc1 [Tenovin-6],0.53,
"Cc1ccc2c(=O)c3cccc(CC(=O)O)c3oc2c1C [DMXAA (Vadimezan), 5,6-dimethylxanthenone-4-acetic acid]",3.23,
N#Cc1c(NC(=O)c2cccc3ccccc23)sc2c1CCCC2 [JNK Inhibitor IX],0.53,
Cc1ccccc1C(C(=O)NC1CCCCC1)N(C(=O)Cn1ccnc1C)c1cccc(F)c1 (centres unmarked) [AGI-5198],1.13,
C[C@@H]1O[C@@H](O[C@H]2C[C@@H](O)[C@]3(CO)[C@H]4[C@H](O)C[C@]5(C)[C@@H](C6=CC(=O)OC6)CC[C@]5(O)[C@@H]4CC[C@]3(O)C2)[C@H](O)[C@H](O)[C@H]1O [Ouabain],1.08,
O=C(O[C@H]1C[C@H]2CC[C@@H](C1)[N+]21CCCC1)C(O)(c1ccccc1)c1ccccc1 [Trospium chloride],0.76,
CC(C)c1c(C(=O)Nc2ccccc2)c(-c2ccccc2)c(-c2ccc(F)cc2)n1CC[C@@H](O)C[C@@H](O)CC(=O)[O-].CC(C)c1c(C(=O)Nc2ccccc2)c(-c2ccccc2)c(-c2ccc(F)cc2)n1CC[C@@H](O)C[C@@H](O)CC(=O)[O-].[Ca+2] [Atorvastatin Calcium],1.45,
C[C@@H](O[C@H]1OCCN(Cc2n[nH]c(=O)[nH]2)[C@H]1c1ccc(F)cc1)c1cc(C(F)(F)F)cc(C(F)(F)F)c1 [Aprepitant],0.76,
Nc1nc(N)c2nc(-c3ccccc3)c(N)nc2n1 [Triamterene],0.99,
O=C(N/N=C/c1ccc(O)c(O)c1)c1cc2ccccc2cc1O [Dynasore],1.62,
"CNC(=O)c1ccc(N2C(=S)N(c3ccc(C#N)c(C(F)(F)F)c3)C(=O)C2(C)C)cc1F [Enzalutamide (MDV3100), Enzalutamide]",0.50,
CC(C)NCC(O)COc1ccc(COCCOC(C)C)cc1 (centres unmarked) [Bisoprolol fumarate],0.70,
Cc1ccc(S(=O)(=O)Cc2nc(-c3ccc(C(=O)NCc4cccnc4)cc3)oc2C)cc1 [STF-118804],1.41,
Cc1cc([C@@H](C)Nc2ccccc2C(=O)O)c2nc(N3CCOCC3)cc(=O)n2c1 [AZD6482],4.47,
COc1ccccc1Oc1c(NS(=O)(=O)c2ccc(C(C)(C)C)cc2)nc(-c2ncccn2)nc1OCCO [Bosentan Hydrate],1.20,
O=C(NOCC1CC1)c1ccc(F)c(F)c1Nc1ccc(I)cc1Cl [PD184352 (CI-1040)],0.94,
"Cc1ccc(-n2nccn2)c(C(=O)N2CCN(c3nc4cc(Cl)ccc4o3)CC[C@H]2C)c1 [Suvorexant (MK-4305), Suvorexant]",1.54,
O=C(Nc1cccnc1)N1CCC(Cc2cccc(Oc3ccc(C(F)(F)F)cn3)c2)CC1 [PF-3845],2.14,
CN(C)Cc1ccc(-c2nc3cccc4c3n2CCNC4=O)cc1 [AG-14361],2.41,
O=c1oc2cc(O)ccc2s1 [Tioxolone],1.88,
Nc1cccc(-c2cc3c(Oc4cccc(O)c4)ncnc3[nH]2)c1 [TWS119],0.35,
O=C(c1ccc(F)cc1)N1CCC[C@H](c2nc(-c3ccc(F)cc3)no2)C1 [ADX-47273],1.72,
COc1ccc(C(=O)N2CCCC2=O)cc1 [Aniracetam],1.02,
c1ccc(NCc2ccc(CNc3ccccn3)cc2)nc1 [WZ811],1.67,
"Cc1cn([C@H]2C=C[C@@H](CO)O2)c(=O)[nH]c1=O [Stavudine (d4T), Stavudine]",8.20,promoted
